Measurements from publication PMC12566157, “Redox-Active Quinazolinone Thioamide Ag(I) Complexes with Potent Antibacterial Activity: Mechanistic Insights and Hydrogel-Enhanced Efficacy” (Molecules, 2025).

Tests used:
S. aureus [1] = experiment: microbe, parasite or virus in culture; conditions: Staphylococcus aureus, read-out: S. aureus MIC μg mL-1
Experimental: (§1) The in vitro antibacterial activity of the synthesized Ag(I) complexes was investigated against two bacterial strains: Gram (+) S. aureus and the Gram (−) E. coli. The assays were conducted using the broth microdilution method to determine both the half-maximal inhibitory concentrations (IC50) and minimal inhibitory concentrations (MIC).

S. aureus [2] = experiment: microbe, parasite or virus in culture; conditions: Staphylococcus aureus, read-out: S. aureus IC50 μg mL-1
Experimental: as §1

E. coli = experiment: microbe, parasite or virus in culture; conditions: Escherichia coli, read-out: E. coli IC50 μg mL-1
Experimental: as §1

[3] = target: T1, thioredoxin reductase (TrxR) (Escherichia coli, UniProt P0A9P4); experiment: enzyme inhibition assay with pure E. coli TrxR; assay type: biochemical
T1 construct: gene trxB
T1 sequence (P0A9P4 2-321): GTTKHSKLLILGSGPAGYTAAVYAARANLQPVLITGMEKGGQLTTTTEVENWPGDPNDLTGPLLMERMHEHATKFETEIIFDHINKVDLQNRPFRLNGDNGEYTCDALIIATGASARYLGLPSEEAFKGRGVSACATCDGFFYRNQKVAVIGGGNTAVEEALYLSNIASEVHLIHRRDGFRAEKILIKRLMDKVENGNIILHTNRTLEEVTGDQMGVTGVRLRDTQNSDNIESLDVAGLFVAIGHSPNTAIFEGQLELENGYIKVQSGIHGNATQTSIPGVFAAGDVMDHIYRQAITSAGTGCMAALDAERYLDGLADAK

[4] = target: T2, glutathione reductase (GR) (Escherichia coli, UniProt A0A0H3JIZ9); experiment: enzyme inhibition assay with pure E. coli GR; assay type: biochemical
T2 construct: gene gor
T2 sequence (A0A0H3JIZ9 entry or part of it): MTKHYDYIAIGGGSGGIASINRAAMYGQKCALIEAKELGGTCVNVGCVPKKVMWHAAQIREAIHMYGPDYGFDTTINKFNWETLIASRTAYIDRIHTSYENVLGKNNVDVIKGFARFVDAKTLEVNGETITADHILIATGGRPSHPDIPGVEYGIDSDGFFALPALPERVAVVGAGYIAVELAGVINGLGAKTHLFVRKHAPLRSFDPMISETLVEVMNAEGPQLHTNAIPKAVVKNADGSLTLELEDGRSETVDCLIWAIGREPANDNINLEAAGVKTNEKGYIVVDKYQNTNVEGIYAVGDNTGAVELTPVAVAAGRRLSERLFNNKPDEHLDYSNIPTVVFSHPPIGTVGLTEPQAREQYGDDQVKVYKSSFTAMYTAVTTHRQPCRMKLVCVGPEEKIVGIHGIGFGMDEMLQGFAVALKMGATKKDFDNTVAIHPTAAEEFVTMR

In the case of O=c1[nH]c(=S)[nH]c2ccccc12 [mqztH, 2-mercapto-4(3H)-quinazolinone], the MIC (S. aureus [1]) is reported as greater than 100 µg/mL, the IC50 (S. aureus [2]) is reported as greater than 100 µg/mL and the IC50 (E. coli) is reported as greater than 100 µg/mL.

c1ccc(P(c2ccccc2)c2ccccc2Oc2ccccc2P(c2ccccc2)c2ccccc2)cc1 [DPEPhos, bis[(2-diphenylphosphino)phenyl]ether] was tested, and the MIC (S. aureus [1]) was greater than 100 µg/mL, the IC50 (S. aureus [2]) was greater than 100 µg/mL and the IC50 (E. coli) was greater than 100 µg/mL.

Compound c1ccc(P(c2ccccc2)c2ccccc2)cc1 [PPh3, thriphenylphosphine] has an MIC (S. aureus [1]) greater than 100 µg/mL, an IC50 (S. aureus [2]) greater than 100 µg/mL and an IC50 (E. coli) greater than 100 µg/mL.

In the case of [AgCl(mqztH)(PPh3)2] [compound 1], the IC50 [3] is reported as 215 nM and the IC50 [4] is reported as 65 nM.
